“Also recorded” adds a separate entry of the source. Like-named read-outs stand apart in the source and are kept apart here.
Assay: In vivo pharmacokinetic study, single intraperitoneal/oral dose, plasma concentration by RP-HPLC
Design: species or system New Zealand White rabbits
Conditions: for C0 / AUC(0-t) / half-life / Tmax / Cmax: both sexes, New Zealand White, plasma; for C0: read-out: C0 (concentration of administrated drug at time zero); for AUC(0-t): linear trapezoidal method, read-out: AUC0–48 (area under the total plasma concentration–time curve); for half-life: read-out: t1/2 (elimination half-life) (converted); for Tmax: rabbit, read-out: tmax (time to reach the peak plasma concentration); for Cmax: read-out: Cmax (peak plasma concentration); for increased bioavailability as compared to in vitro concentration: in vitro concentration from ref 15; for bioavailability (in words): single dose, derivative 1 intraperitoneal, derivatives 2 and 3 oral
From the text: The ten healthy adult New Zealand White rabbits weighing between 1.75–2.75 kg of either sex were procured from the institute Advanced Facility for Small Animal Research, PGIMER Chandigarh, after approval from the Institutional Animal Ethics Committee Ref. No. 69/IAEC/418 as per the Committee for the Purpose of Control and Supervision of Experiments on Animals (CPCSEA) guidelines. The animals were housed in polypropylene cages under standard laboratory conditions at controlled temperature (25 ± °C) and 12-h light/dark cycles until the end of the experimental period. Animals were given free access to diet and water in a room and were fasten for at least 12 h prior to experiment. To achieve meaningful statistical results, we used a minimally sufficient number of animals in all cases. A fifteen-days washout period was carried out, which allows animals to completely recover and clear off the administered derivatives.
A total of ten healthy adult New Zealand White rabbits were divided into three groups; (i) derivative 1 treated group, (ii) derivative 2 treated group, and (iii) derivative 3 treated group. The whole experiment was performed in two batches with each batches containing n = 3 animals per group. The second batch with same groups were repeated after giving fifteen-days washout period which helps animals to recover and clear off previous administered derivatives. The three chalcone derivatives were administered at effective dose concentration [dose extrapolated from in vitro study, [15] as per OECD GLP compliance. A single dose of each chalcone derivatives 1, 2 & 3 (suspended in 0.5% carboxymethyl cellulose) were administered to each animal in the early morning at 7:00 am, which was noted as 0 h and then blood samples (1 mL) of animals were collected at specific time intervals of 0, 0.25 h, 0.5 h, 1 h, 2 h, 4 h, 6 h, 8 h, 12 h, 24 h, 36 h, 48 h from marginal ear vein in heparin containing vials. These derivatives were either administered orally through orogastric tube or intraperitoneally. All blood samples were collected from the marginal ear vein after topical anaesthesia with 4% lignocaine solution. No euthanasia procedure was required during the study, and after completion of experiments all animals were kept in rehabilitation centre according to CPCSEA guidelines, in the institute Advanced Facility for Small Animal Research, PGIMER, Chandigarh. Plasma samples for the determination of drug concentration were prepared for RP-HPLC analysis.
Rabbit blood samples were accumulated in heparin contained dry evacuated tubes from marginal ear veins of healthy rabbits as per the standard operating procedure. These samples were centrifuged within 1 h of collection, for segregation of plasma at 1500 rpm for 10 min. The segregated plasma was preserved at […] till assay. Prior experimental analysis the deproteinization of the plasma samples was done in the mixture of methanol and water (90:10 v/v), then vortexed for at least 10–15 min, after while centrifuged for at least 15 min at 6000 rpm, and finally supernatants were pipette-out in a new vial. The supernatants were then spiked with the measured volume of diluted stock solutions of chalcone making up to final concentrations of 10–100 μg/mL.
Each sample has been collected from rabbits at a different time interval and plasma was separated and either processed for assay procedure or stored at – 20 °C in deep freezer till experiment. On the day of the experiment, 100 µL of plasma from each vial was transferred to another and mixed with 100 µL of acetonitrile (HPLC analytical Grade). Then was kept for 5 min at room temperature and then centrifuged at 7000 rpm for 10 min. Supernatant was separated and reconstituted with the mobile phase and finally sterile filter with 0.22 µm membrane filter before the assay procedure.
Chromatographic separation was achieved as mentioned earlier with slight modification. […]

[1] = 4.85 mg/kg, derivative 2, single oral dose 7.28 mg/1.5 kg rabbit, mean ± SEM, n = 5
[2] = derivative 2, single oral dose 7.28 mg/1.5 kg rabbit (4.85 mg/kg), mean ± SEM, n = 5
[3] = 3.64 mg/kg, derivative 3, single oral dose 5.46 mg/1.5 kg rabbit, mean ± SEM, n = 6
[4] = ip, derivative 1, single intraperitoneal dose 5.46 mg/1.5 kg rabbit, mean ± SEM, n = 6

COc1ccc(/C=C/C(=O)c2cc(OC)c(OC)c(OC)c2)cc1 [Derivative 2, (E)-(3,4,5-Trimethoxyphenyl)-3-(4-methoxyphenyl)prop-2-en-1-one]
C0 [1]: 986 ± 4 ng/mL
AUC(0-t) [1]: 3760 ± 739 µg·h/mL
half-life [1]: 93.3 ± 32.6 h
Tmax (po, 4.85 mg/kg, derivative 2, single oral dose 7.28 mg/1.5 kg rabbit (4.85 mg/kg), mean ± SEM, n = 5): 3.84 h
Cmax [2]: 69900 ± 5490 ng/mL
increased bioavailability as compared to in vitro concentration (compound 2, single oral dose): tenfold
mean CL (derivative 2, single 4.85 mg/kg oral dose): 0.15 ± 0.05 L/h
systemic exposure (in words) (derivative 2, single oral administration, compared to other two chalcone derivatives): comparatively better systemic exposure
time the peak concentration remained constant (derivative 2, single oral dose 4.85 mg/kg): 3 to 4 h
tmax (time to reach the peak plasma concentration) [2]: 3.4 ± 0.79 h
Vd (volume of distribution) (derivative 2, single oral dose 7.28 mg/1.5 kg rabbit, mean ± SEM, n = 5): 10.72 ± 0.66 L

COc1ccc(/C=C/C(=O)c2cc(OC)c(OC)c(OC)c2)cc1OC [Derivative 3, (E)-1-(3,4,5-Trimethoxyphenyl)-3-(3,4-dimethoxyphenyl)prop-2-en-1-one]
C0 [3]: 944 ± 7 ng/mL
AUC(0-t) [3]: 14.2 ± 3.78 µg·h/mL
half-life [3]: 13.3 ± 1.67 h
Tmax (po, 3.64 mg/kg, derivative 3, single oral dose 5.46 mg/1.5 kg rabbit (3.64 mg/kg), mean ± SEM, n = 6): 2.83 ± 0.87 h
Cmax (derivative 3, single oral dose 5.46 mg/1.5 kg rabbit (3.64 mg/kg), mean ± SEM, n = 6): 3740 ± 1640 ng/mL
increased bioavailability as compared to in vitro concentration (compound 3, single oral dose): 25 fold
mean CL (derivative 3, single 3.64 mg/kg oral dose): 0.53 ± 0.10 L/h
kinetics of metabolism / elimination phase (in words) (derivative 3, single oral dose): first order kinetics
Vd (volume of distribution) (derivative 3, single oral dose 5.46 mg/1.5 kg rabbit, mean ± SEM, n = 6): 9.12 ± 0.73 L
bioavailability (in words): poor bioavailability; also recorded: very low bioavailability

COc1ccc(/C=C/C(=O)c2cc(OC)ccc2OC)cc1 [Derivative 1, (E)-1-(2,5-Dimethoxyphenyl)-3-(4-methoxyphenyl)prop-2-en-1-one]
Cmax (ip, derivative 1, single intraperitoneal dose 5.46 mg/1.5 kg rabbit (text: 3.84 mg/kg), mean ± SEM, n = 6): 1960 ± 460 ng/mL
C0 [4]: 966 ± 25 ng/mL
AUC(0-t) [4]: 2.94 ± 0.83 µg·h/mL
half-life [4]: 12.6 ± 2.09 h
Tmax (ip, 5.46 mg/1.5 kg rabbit, derivative 1, single intraperitoneal dose 5.46 mg/1.5 kg rabbit (text: 3.84 mg/kg), mean ± SEM, n = 6): 0.33 ± 0.05 h
increased bioavailability as compared to in vitro concentration (compound 1, single intraperitoneal dose): three fold
first blood sampling time at which derivative was spotted in plasma (derivative 1, after IP administration): 15 min
mean CL (derivative 1, single 3.84 mg/kg intraperitoneal dose): 0.28 ± 0.08 L/h
Vd (volume of distribution) (derivative 1, single intraperitoneal dose 5.46 mg/1.5 kg rabbit, mean ± SEM, n = 6): 7.31 ± 0.29 L
bioavailability (in words): very low bioavailability
